# Measured values from US20140271734A1, “BILE ACID RECYCLING INHIBITORS FOR TREATMENT OF BARRETT'S ESOPHAGUS AND GASTROESOPHAGEAL REFLUX DISEASE” (LUMENA PHARMACEUTICALS, INC., priority 2013, published 2014).
# Experiments:
# [1] = tested on: postprandial serum bile acids AUC; assay: Inhibition of the postprandial rise in SBA, LUM001 compared to cholestyramine; format: in vivo, dogs
# Procedure: LUM001 was dissolved in 0.2% Tween 80 at concentrations that required the administration of 0.2 ml dosing solution/kg of body weight at each dose tested. Cholestyramine was suspended in water at concentrations that required the administration of 2.5 ml/kg (500 mg/kg) and 1 ml/kg (200 mg/kg). The appropriate volume of solution formulation for each animal was placed into a gelatin capsule, Torpac Inc., size 13, Batch 594, East Hanover, N.J. and administered per os. Test compounds were administered as single oral doses to groups of dogs, 3 to 9 dogs per group at varying dosages. LUM001 and cholestyramine were administered in solution 30 minutes prior to feeding and blood samples collected at 30-minute intervals for four hours after feeding. LUM001 was given at 0, 0.02, 0.05, 0.2, 0.6, 2, 5 or 15 mg/kg. Cholestyramine was administered at 200 or 500 mg/kg. […] No dog received any one compound dosage more than once. SBA was measured by an enzymatic assay. SBA values are expressed as μg of total bile acids/ml of serum.
# [2] = Single-dose [14C]LUM001 oral solution: radioactivity in plasma, blood, urine, feces; format: in vivo, human
# Procedure: This was an open-label, one-period, single-dose study of a [^14C]LUM001 oral solution. Eight healthy male subjects received an oral solution of 5 mg [^14C]LUM001 (containing approximately […] per dose). Blood samples were collected at predose and for 72 hours postdose, urine samples were collected predose and for 168 hours postdose and feces were collected predose and for 216 hours postdose. Plasma, whole blood, urine and fecal samples were analyzed for total radioactivity, and selected fecal samples were analyzed for LUM001 and relevant metabolite concentrations. In addition, metabolic profiles in selected fecal samples were obtained using high performance liquid radio chromatography (HPLRC).
# [3] = tested on: Aspartate Aminotransferase (ASAT); assay: Plasma aspartate aminotransferase in ZDF rats, week 3; format: in vivo; details: twice daily oral gavage
# [4] = tested on: Alanine Aminotransferase (ALAT); assay: Plasma alanine aminotransferase in ZDF rats, week 3; format: in vivo; details: twice daily oral gavage
# [5] = tested on: fecal excretion of [14C]taurocholic acid (TCA); assay: Fecal excretion of [14C]taurocholic acid in hamsters, LUM002; format: in vivo, Syrian hamster; details: oral gavage in two half doses, feces collected 24 hours, n=4 nonfasted hamsters per group
# Procedure: To study the effect of LUM002 on fecal excretion of [^14C]taurocholic acid (TCA) in the Syrian hamster in vivo, [^14C]TCA was administered intraperitoneally 1 hour before dosing the test compound. Each animal was dosed with 1 μCi [^14C]TCA. LUM002 was dosed by oral gavage (5 mL/kg per administration) in either 5% (v/v) Solutol with 0.5% hydroxyethylcellulose (HEC) or 0.5% HEC alone. The first half of dose of test compound/vehicle was given 1 hour after [^14Cl]TCA injection, followed by the second half of dose 7 hours after the first dose of test compound/vehicle. Feces were collected for 24 hours after [^14Cl]TCA administration and aliquots from feces were combusted for determination of [^14Cl] excretion.
# The ED200 (dose which doubles the fecal excretion of [^14Cl] label vs. control from dose response curve, including 95% Confidence interval) was calculated from a dose response curve.
# [6] = tested on: GLP-2; assay: GLP-2 in plasma of non-fasted ZDF rats, 2 weeks treatment; format: in vivo
# [7] = 5 mg [14C]LUM001 oral solution, eight healthy male subjects
# [8] = 5 mg [14C]LUM001 oral solution, analyte in feces
smiles,measurement,setting,value
CCCCC1(CCCC)CS(=O)(=O)c2ccc(N(C)C)cc2[C@@H](c2ccc(OCc3ccc(C[N+]45CCN(CC4)CC5)cc3)cc2)[C@H]1O [LUM001],Inhibition of postprandial serum bile acids AUC (0-240 min) compared to cholestyramine,"[1]; LUM001 0.02-15 mg/kg vs cholestyramine 200 or 500 mg/kg, single oral doses","superior inhibition of postprandial serum bile acids AUC, at a lower dose"
same,Serum bile acids,[1]; single oral dose 0.02-15 mg/kg 30 minutes prior to feeding,significantly decreased serum bile acids
same,Fecal radioactivity associated with unchanged free LUM001,[2]; 5 mg [14C]LUM001 oral solution,94%
same,"Radioactive dose detected in plasma, whole blood or urine",[2]; [7],Less than 1%
same,Total radioactive dose detected in feces,[2]; [7],72%
same,Mean Percent of Dose in Feces,[2]; [8],65.0%
same,Percent of Fecal Radioactivity,[2]; [8],94.4%
same,Cumulative % of Total Dose,[2]; Feces incl. Toilet Paper (cumulative recovery in toilet paper from first five fecal samples),72.466%
same,Cumulative % of Total Dose,"[2]; Feces, 0-24 hr",30.376%
same,Cumulative % of Total Dose,"[2]; Feces, 24-48 hr",49.878%
same,Cumulative % of Total Dose,"[2]; Feces, 48-72 hr",67.630%
same,Cumulative % of Total Dose,"[2]; Feces, 72-96 hr",69.653%
same,Cumulative % of Total Dose,"[2]; Feces, 96-120 hr",71.606%
same,Cumulative % of Total Dose,"[2]; Feces, 120-144 hr",71.771%
same,Cumulative % of Total Dose,"[2]; Feces, 144-168 hr",71.815%
same,Cumulative % of Total Dose,"[2]; Feces, 168-192 hr",71.885%
same,Cumulative % of Total Dose,"[2]; Feces, 192-216 hr",71.885%
same,Radioactive Concentration,"[2]; Plasma, 0.5 hr",BLQ
same,Radioactive Concentration,"[2]; Plasma, 1 hr",BLQ
same,Radioactive Concentration,"[2]; Plasma, 1.5 hr",BLQ
same,Radioactive Concentration,"[2]; Plasma, 2 hr",BLQ
same,Radioactive Concentration,"[2]; Plasma, 2.5 hr",BLQ
same,Radioactive Concentration,"[2]; Plasma, 3 hr",BLQ
same,Radioactive Concentration,"[2]; Plasma, 4 hr",BLQ
same,Radioactive Concentration,"[2]; Plasma, 6 hr",BLQ
same,Radioactive Concentration,"[2]; Plasma, 8 hr",BLQ
same,Radioactive Concentration,"[2]; Plasma, 12 hr",BLQ
same,Radioactive Concentration,"[2]; Plasma, 16 hr",0.000 ng equivalents/mL
same,Radioactive Concentration,"[2]; Plasma, 24 hr",BLQ
same,Radioactive Concentration,"[2]; Plasma, 36 hr",0.000 ng equivalents/mL
same,Radioactive Concentration,"[2]; Plasma, 48 hr",BLQ
same,Radioactive Concentration,"[2]; Plasma, 60 hr",BLQ
same,Radioactive Concentration,"[2]; Plasma, 72 hr",BLQ
same,Cumulative % of Total Dose,[2]; Total (Urine and Feces),72.532%
same,Cumulative % of Total Dose,"[2]; Urine, 0-2 hr",0.005%
same,Cumulative % of Total Dose,"[2]; Urine, 2-4 hr",0.012%
same,Cumulative % of Total Dose,"[2]; Urine, 4-8 hr",0.028%
same,Cumulative % of Total Dose,"[2]; Urine, 8-12 hr",0.041%
same,Cumulative % of Total Dose,"[2]; Urine, 12-24 hr",0.058%
same,Cumulative % of Total Dose,"[2]; Urine, 24-48 hr",0.057%
same,Cumulative % of Total Dose,"[2]; Urine, 48-72 hr",0.062%
same,Cumulative % of Total Dose,"[2]; Urine, 72-96 hr",0.063%
same,Cumulative % of Total Dose,"[2]; Urine, 96-120 hr",0.063%
same,Cumulative % of Total Dose,"[2]; Urine, 120-144 hr",0.064%
same,Cumulative % of Total Dose,"[2]; Urine, 144-168 hr",0.066%
same,Radioactive Concentration,"[2]; Whole Blood, 1 hr",0.000 ng equivalents/g
same,Radioactive Concentration,"[2]; Whole Blood, 4 hr",0.000 ng equivalents/g
same,Radioactive Concentration,"[2]; Whole Blood, −0.5 hr",0.000 ng equivalents/g
"CCCC[C@]1(CC)CS(=O)(=O)c2ccc(N(C)C)cc2[C@@H](c2cccc(NC(=O)N[C@@H]3O[C@H](COS(=O)(=O)[O-])[C@@H](O)[C@H](OCc4ccccc4)[C@H]3O)c2)[C@H]1O.CCO.O.[K+] [LUM002, potassium((2R,3R,4S,5R,6R)-4-benzyloxy-6-{3-[3-((3S,4R,5R)-3-butyl-7-dimethylamino-3-ethyl-4-hydroxy-1,1-dioxo-2,3,4,5-tetrahydro-1H-benzo[b]thiepin-5-yl)-phenyl]-ureido}-3,5-dihydroxy-tetrahydro-pyran-2-ylmethyl)sulphate ethanolate, hydrate]",Plasma aspartate aminotransferase (ASAT),[3],statistically significant reduction in ASAT
same,Plasma alanine aminotransferase (ALAT),[4],Neither LUM002 nor SC-435 caused statistically significant reductions
same,Fecal excretion of bile acids ([14C]TCA label),[5],significantly increased fecal excretion of bile acids
same,GLP-2 in plasma,[6],significant elevations in GLP2 at higher doses
